Laboratory results as given in US20100017895A1, “Small animal model for hcv replication” (priority 2005, published 2010).

How the values were obtained:
[1] = system: HCV replicon in T7-11 cells; assay: Subcutaneous T7-11 replicon cell model in gamma-irradiated SCID mice (bioluminescence, NS5B IFA, RT-PCR, cPARP, Ki67)
Experimental: Efficacy studies with T7-11 implanted mice were initiated when the bioluminescence signal was stable and approximately two logs above background. […] Control animals received human albumin.
BILN 2061 was administered at 30 mg/kg once daily starting day 21-post subcutaneous implantation of T7-11 cells.
Cell implantation. Female SCID mice were shaved at the site of cell implantation and gamma-irradiated with 3 Gy either one-day prior to or on the same day as cell implant. For subcutaneous implantation, five million cells in 0.2 ml of HBSS were implanted at the right flank.
Whole body in vivo imaging. Anesthetized mice were injected intraperitoneally with 150 mg/kg of luciferin (Xenogen Corporation, Alameda, Calif.). After 10-20 minutes, mice were imaged using a CCD camera in the Xenogen IVIS™ imaging system. The bioluminescence signal intensity was quantified using Living Image Software (Xenogen Corporation, Alameda, Calif.).
Statistical analysis. Differences in bioluminescence signal between control and treatment groups of mice were compared by the two-tailed Mann-Whitney test. Differences in signal among the control, treatment and rebound groups of mice and among combination groups were compared by the nonparametric Kruskal-Wallis test A P-value <0.05 was considered significant.

[2] = system: HCV replicon in T7-11 cells; assay: Liver model with T7-11 replicon cells in gamma-irradiated SCID mice; assay type: in vivo; conditions: 30 mg/kg SC once daily from day 25 post tumor cell implantation; within three days
Experimental: To evaluate the efficacy of IFN-α in liver, T7-11 cells were directly injected into one lobe of the liver in gamma irradiated SCID mice. […] To confirm that the luciferase signal was associated with the liver, the locations of tumors were determined by physical examination at the end of study
The antiviral effect of BILN 2061 on HCV replication was also examined. BILN 2061 was administered subcutaneously at 30 mg/kg once daily starting day 25-post tumor cell implantation.
Whole body in vivo imaging.

[3] = Pharmacokinetic (PK) data, subcutaneous route; assay type: in vivo

Substance | effect on bioluminescence signal ([1]; 1 mg/kg, over 5 days of treatment) | signal after treatment was terminated ([1]; 30 mg/kg SC QD three days, several days after termination) | adverse effect on the replicon-containing cells ([1]; 30 mg/kg SC once daily for three days) | decrease of bioluminescence signal compared to the control group ([1]; 30 mg/kg SC once daily from day 21, within three days) | fold decrease of mean bioluminescence signal as compared to the control group ([1]; two days after treatment, SC daily from day 18, BILN 2061 30 mg/kg and/or IFN-α 15,000 IU) | fold decline in bioluminescence compared to the untreated control group [2] | duration of sustained plasma exposure [3]
Interleukin 2 [IL-2] | no effect |  |  |  |  |  | 
BILN 2061 |  | returned to the levels similar to the untreated control group | did not have any adverse effect on the replicon-containing cells | approximately two | 16 fold | 10 fold | more than 24 hr
